Experimental data published in US9045531B2, “HLA-binding peptide, precursor thereof, and DNA fragment and recombinant vector coding for said HLA-binding peptide” (NEC CORPORATION, priority 2006, dated 2015).
No end group written: not given here.

Assays:
[1] = tested on: human HLA-A type molecule; assay: Binding experiments, summary statement for HLA-A type molecules; conditions: summary of the binding experiments
Experimental: The ability of a peptide to bind to an HLA-A2 molecule, which is a product of the HLA-A*0201 gene, was measured using strain JY cells (obtained from ATCC (American Type Culture Collection)) expressing the HLA-A*0201.
The ability of a peptide to bind to an HLA-A2 molecule, which is a product of the HLA-A*0206 gene, was measured using RA2.6 cells (cell strain newly prepared in Kochi University) in which cDNA of the HLA-A*0206 gene is expressed in RAMS cells, which are mouse TAP peptide transporter deficient cells.

[2] = tested on: HLA-A24 molecule (product of the HLA-A*2402 gene); assay: Experiment of binding peptide to HLA-A2402 molecule (C1R-A24 cells, flow cytometry); set-up: species or system human; conditions: HLA-A24 (HLA-A*2402)
Experimental: The ability of a peptide to bind to an HLA-A24 molecule, which is a product of the HLA-A*2402 gene, was measured using C1R-A24 cells expressing the HLA-A24 gene (cells produced by Professor Masafumi Takiguchi, Kumamoto University being supplied with permission).
After neutralization, purified β2m was added to C1R-A24 cells, the obtained product was added to serial dilutions of a peptide, and incubated on ice for 4 hours.
Subsequently, the MHC-pep count per C1R-A24 cell (proportional to the strength of fluorescence of the above-mentioned fluorescent antibody) was quantitatively measured using a FACScan fluorescence-activated cell sorter (Becton Dickinson Biosciences). A binding dissociation constant Kd value between the HLA-A24 molecule and the peptide was calculated from the average strength of fluorescence per cell by a published method (Udaka et al., Immunogenetics, 51, 816-828, 2000).

| Sequence | binding to a human HLA-A type molecule (result in words) [1] | Binding Experiment Data (−log Kd value) [2] |
| --- | --- | --- |
| ATNPIVPSF [SEQ ID NO: 6] | experimentally confirmed to bind | 7.564 |
| ATNPVVPSF [SEQ ID NO: 7] | experimentally confirmed to bind | 7.808 |
| ATSPIVPSF [SEQ ID NO: 9] | experimentally confirmed to bind | 7.802 |
| DMNNEGSYF [SEQ ID NO: 18] | experimentally confirmed to bind | 5.374 |
| DMSNEGSYF [SEQ ID NO: 16] | experimentally confirmed to bind |  |
| FQGRGVFEL [SEQ ID NO: 48] | experimentally confirmed to bind |  |
| GQISVQPTF [SEQ ID NO: 5] | experimentally confirmed to bind | 7.191 |
| IFLARSALI [SEQ ID NO: 4] | experimentally confirmed to bind | 8.012 |
| IYKRRDGKW [SEQ ID NO: 17] | experimentally confirmed to bind | 7.326 |
| IYKRREGKW [SEQ ID NO: 13] | experimentally confirmed to bind | 7.25 |
| IYRRRDGKW [SEQ ID NO: 10] | experimentally confirmed to bind | 7.497 |
| LIFLARSAL [SEQ ID NO: 52, LIFLARSAL] | experimentally confirmed to bind |  |
| LILYDKEEI [SEQ ID NO: 51] | experimentally confirmed to bind |  |
| LQNSQVFSL [SEQ ID NO: 49] | experimentally confirmed to bind |  |
| NLPFERATI [SEQ ID NO: 8] |  | 7.764 |
| NLPFERATI [SEQ ID NO: 25] | experimentally confirmed to bind |  |
| RLIQNSITI [SEQ ID NO: 3] | experimentally confirmed to bind |  |
| RLLQNSQVF [SEQ ID NO: 2] | experimentally confirmed to bind | 6.915 |
| RMVGGIGRF [SEQ ID NO: 14] | experimentally confirmed to bind | 7.543 |
| RMVSGIGRF [SEQ ID NO: 15] | experimentally confirmed to bind | 7.436 |
| SLPFERATI [SEQ ID NO: 11] | experimentally confirmed to bind | 7.719 |
| VGIDPFRLL [SEQ ID NO: 12] | experimentally confirmed to bind | 5.12 |
| WMACHSAAF [SEQ ID NO: 1] | experimentally confirmed to bind |  |
| YLEEHPSAG [SEQ ID NO: 21] | experimentally confirmed to bind |  |
| YLEENPSAG [SEQ ID NO: 26] | experimentally confirmed to bind |  |
